These results are taken from patent US5610174A, “Use of α1A -selective adrenoceptor agonists for the treatment of urinary incontinence” (priority 1995, dated 1997).

Read-outs that look alike come from different tables or passages of the source. Some results are limits rather than exact numbers.

One experiment deals with T1, human α2B adrenoceptor (Homo sapiens, UniProt P18089).
T1 sequence (P18089 1-450): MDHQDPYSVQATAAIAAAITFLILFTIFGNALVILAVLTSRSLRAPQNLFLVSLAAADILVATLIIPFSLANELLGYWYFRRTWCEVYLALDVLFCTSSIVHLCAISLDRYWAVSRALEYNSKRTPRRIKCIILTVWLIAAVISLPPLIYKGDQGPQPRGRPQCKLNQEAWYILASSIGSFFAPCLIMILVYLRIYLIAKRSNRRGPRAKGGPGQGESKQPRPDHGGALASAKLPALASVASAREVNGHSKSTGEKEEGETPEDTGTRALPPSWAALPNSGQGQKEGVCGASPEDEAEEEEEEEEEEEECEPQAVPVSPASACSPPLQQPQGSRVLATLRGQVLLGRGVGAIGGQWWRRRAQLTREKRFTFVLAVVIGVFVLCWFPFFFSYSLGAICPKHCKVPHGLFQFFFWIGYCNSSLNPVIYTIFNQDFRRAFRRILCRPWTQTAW
Kind of experiment: Inhibition of forskolin stimulated adenylyl cyclase, α2B. To be noted: for Emax: read-out: intrinsic activity (i.a.) α2B. Also noted: expressed in transfected cells; host or cells: Y1 cells, line Ya2B-2 (ATCC CRL 11888). The format is cell-based. As for the experimental part:
α2 -Adrenoceptor-Mediated Inhibition of Forskolin Stimulated Adenylyl Cyclase
The agonist activity of test compounds was assayed by measuring their ability to inhibit adenylyl cyclase in cells stably transfected with each of the three cloned human α2 -adrenoceptors. LM(tk-) cells expressing the α2A - or the α2C -, as well as Y1 cells expressing the α2B -adrenoceptor were used. […] The formation of cyclic AMP was measured in cultures incubated with DMEM containing 1 mM theophylline. Twelve concentrations of the test compounds (from 10 pM to 100 μM) were added to the incubation medium and incubated at 37° C. for 20 min. Following this incubation step, 10 μM forskolin was added to stimulate the formation of cyclic AMP, and the cultures were incubated for another 10 min. The reaction was stopped by replacing the incubation medium with 100 mM HCl . The intracellular levels of cyclic AMP were measured by radioimmunoassay. The data from concentration-response curves was fitted to a four-parameter logistic equation, by non-linear regression analysis, to determine the pEC50 and intrinsic activity.

A further experiment has as its target T2, human α1A adrenoceptor (Homo sapiens, UniProt P25100).
T2 sequence (P25100 1-572): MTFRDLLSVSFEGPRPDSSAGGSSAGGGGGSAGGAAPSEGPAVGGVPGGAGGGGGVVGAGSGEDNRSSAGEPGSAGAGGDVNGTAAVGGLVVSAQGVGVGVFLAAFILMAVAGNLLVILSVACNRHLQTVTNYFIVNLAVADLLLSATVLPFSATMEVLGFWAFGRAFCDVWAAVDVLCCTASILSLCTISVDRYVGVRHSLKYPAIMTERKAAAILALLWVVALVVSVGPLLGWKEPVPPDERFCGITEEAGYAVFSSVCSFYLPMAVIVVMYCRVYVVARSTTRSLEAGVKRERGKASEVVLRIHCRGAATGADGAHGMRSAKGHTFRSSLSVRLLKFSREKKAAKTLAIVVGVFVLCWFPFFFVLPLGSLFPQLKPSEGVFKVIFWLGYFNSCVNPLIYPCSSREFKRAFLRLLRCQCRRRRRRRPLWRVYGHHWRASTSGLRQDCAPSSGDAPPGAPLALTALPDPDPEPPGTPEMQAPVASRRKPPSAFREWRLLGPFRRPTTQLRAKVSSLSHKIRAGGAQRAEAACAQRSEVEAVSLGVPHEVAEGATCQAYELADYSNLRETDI
Kind of experiment: biochemical. The format is binding. The protocol: These cell lines were prepared by transfecting the cloned cDNA or cloned genomic DNA or constructs containing both genomic DNA and cDNA encoding the human α-adrenoceptors as follows:
The cells were grown, in a controlled environment (37° C., 5% CO2), as monolayers in Dulbecco's modified Eagle's Medium (GIBCO, Grand Island, N.Y.) containing 25 mM glucose and supplemented with 10% bovine calf serum, 100 units/ml penicillin g, and 100 μg/ml streptomycin sulfate.
Transfected cells from culture flasks were scraped into 5 ml of 5 mM Tris-HCl, 5 mM EDTA, pH 7.5, and lysed by sonication. The cell lysates were centrifuged at 1000 rpm. for 5 min at 4° C., and the supernatant was centrifuged at 30,000 ×g for 20 min at 4° C. The pellet was suspended in 50 mM Tris-HCl , 1 mM MgCl2, and 0.1% ascorbic acid at pH 7.5. […] The reaction was stopped by filtration through GF/B filters using a cell harvester.

[1] abbreviates: agonist, inhibition of forskolin stimulated adenylyl cyclase, read-out: pEC50 α2B (converted).
Where [2] appears, read: relative to reference full agonist (e.g., norepinephrine = unity).
Setting [3] is: Table 3, agonists, read-out: pKi α1A (converted).

Take `CS(=O)(=O)Nc1c(O)ccc2c1CCCC2C1=NCCN1` (racemic) [Compound A-61603, (±)-N-[5-(4,5-Dihydro-1H-imidazol-2-yl)-2-hydroxy-5,6,7,8-tetra-hydronaphthalen-1-yl]methanesulfonamide]: the EC50 on human α2B adrenoceptor (setting [1]) is 79.4 nM. Moreover, the Emax on human α2B adrenoceptor (setting [2]) stood at 80%. Further, the Ki on human α1A adrenoceptor (setting [3]) is 12.6 µM.

On to `COc1ccc(OC)c(C(O)CN)c1` (racemic) [ST-1059, (±)-2-Amino-1-(2, 5 dimethoxyphenyl) ethanol], for which, at human α2B adrenoceptor, the EC50 is 2.51 nM and the Emax was determined as 60%. Further, at human α1A adrenoceptor, the Ki was 7.94 µM.

In the case of `COc1ccc(SC)c2c1C[C@@H]1[C@@H](C2)OCCN1C` (relative stereo) [SDZ NVI-085, (±)-trans-4-Methyl-6-methoxy-9-thiomethoxy-3,4,4a, 5,10,10a-hexahydro-2H-naphtho[2,3-b][1,4]oxazine], at human α2B adrenoceptor (setting [1]), the EC50 is above 100000 nM. The Emax on human α2B adrenoceptor amounted to 0%. Besides, the Ki at human α1A adrenoceptor (setting [3]) was 2 µM.

For the compound `CN[C@@H](C)[C@H](O)c1ccccc1` [(-)-ephedrine], at human α2B adrenoceptor, the EC50 was 251 nM and the Emax stood at 40%. Also, at human α1A adrenoceptor, the Ki is 50.1 µM.

For the compound `C[C@H](N)[C@H](O)c1ccccc1` [(-)-norephedrine], on human α2B adrenoceptor, the EC50 is 794 nM and the Emax came out at 50%. In addition, the Ki at human α1A adrenoceptor is 25.1 µM.

On to `CNC[C@H](O)c1cccc(O)c1` [(-)-phenylephrine], for which the “intrinsic activity (i.a.) α2B” value on human α2B adrenoceptor (setting [2]) was determined as 0.8. Moreover, the Ki at human α1A adrenoceptor is 3.98 µM.

On to `COc1cc2c(cc1OC)CN(c1cc(N)c3cc(OC)c(OC)cc3n1)CC2` [Abanoquil, 2-(6,7-Dimethoxy-3,4-dihydro-1H-isoquinolin-2-yl)-6,7-dimethoxyquinolin-4-ylamine hemifumarate hydrate], for which, on human α1A adrenoceptor (Table 2, antagonists, versus 3H-prazosin), the “pKI (antagonist affinity, 3H-prazosin binding) hα1A” value worked out at 10.4.

As for `COc1ccccc1N1CCN(CCCNc2c(C)c(=O)n(C)c(=O)n2C)CC1` [Compound 5-MU], on human α1A adrenoceptor (Table 2, antagonists, versus 3H-prazosin, read-out: pKI (antagonist affinity, 3H-prazosin binding) hα1A (converted)), the Ki was 0.0158 µM.

Take `CNCCc1ccc(O)c(NS(C)(=O)=O)c1` [SK&F 102652]: at human α2B adrenoceptor, the Emax came out at 90%.
